# Reference: patent US20240335462A1, “SULFUR/PHOSPHORUS-CONTAINING ARYL COMPOUND AND APPLICATION THEREOF” (MEDSHINE DISCOVERY INC., priority 2021, published 2024)
# Where two headings read alike, the source gives them in different places.
# Experiments:
# [1] = Pharmacokinetic testing in mice; type: in vivo, male CD-1 mice; settings: mouse; for C0: read-out: Starting concentration C0; for Cmax: read-out: Peak concentration Cmax; for Vd: read-out: Apparent volume of distribution Vd; for AUC(0-t): read-out: Area under the curve AUC0-last; for half-life: read-out: Half-life T1/2 (converted); for bioavailability: read-out: Bioavailability F %; for Tmax: read-out: Time to peak concentration Tmax
# Protocol: The objective was to study the pharmacokinetic behavior of the compound of the present disclosure in mice and evaluate the pharmacokinetic characteristics, using male CD-1 mice aged 7 to 9 weeks as test animals. The drug concentrations in plasma at different time points after a single intravenous injection (IV) and oral administration (PO) of the compound were determined using LC/MS/MS.
# The pharmacokinetic characteristics of the compound in rodents following intravenous injection and oral administration were tested using a standard protocol. Test animals were fasted for 10 to 14 hours before administration and allowed to feed 4 hours post-administration. The compound was prepared into a clear solution with the appropriate solvent for both IV (intravenous injection) and PO (oral gavage) administration. The solvent was 10% DMSO+10% solutol+80% (10% HP-β-CD aqueous solution). Whole blood samples were collected within 24 hours, centrifuged at 6000 g for 3 minutes, and the supernatant was separated to obtain plasma samples. Protein precipitation was performed by adding four times the volume of acetonitrile solution containing internal standard to the plasma samples. After centrifugation, the supernatant was added with an equal volume of water and then centrifuged before being subjected to LC-MS/MS analysis for quantifying plasma drug concentration. Pharmacokinetic parameters such as peak concentration, time to peak concentration, clearance, half-life, area under the drug-time curve, and bioavailability were calculated.
# [2] = test system: JAK1/2 signaling pathway (IL-6/pSTAT3); assay: IL-6-induced STAT phosphorylation in human whole blood; type: cell-based
# Protocol: The purpose of this experiment was to detect the inhibitory effect of the compound on the JAK-STAT signaling pathway activated by cytokines in human whole blood or platelet-rich plasma. Fresh human whole blood/platelets were placed in a 96-well plate. The test compound was added and incubated for 1 hour, followed by stimulation with various cytokines. The corresponding STAT phosphorylation levels in different cell populations were analyzed using flow cytometer by means of surface antibody staining and intracellular phosphorylated antibody staining. The experiments using the cytokines IFN-α, […] as stimulants were conducted in human whole blood, whereas the experiment using the cytokine TPO as a stimulant was conducted in platelet-rich plasma.
# • a) Fresh blood from volunteers was collected using EDTA anticoagulant tubes. • b) 90 μL per well of whole blood was rapidly seeded into a 96-well plate and incubated in a cell culture incubator for 15 minutes. […] The plate was centrifuged at 500×g for 8 minutes, and the supernatant was discarded. • g) The cell pellet was washed once with pre-cooled PBS. • h) After discarding the supernatant, anti-human CD3 antibody was added thereto, followed by incubation at room temperature for 40 minutes. • i) The plate was centrifuged at 500×g for 8 minutes, then the supernatant was discarded, and the cells were washed twice with 200 μL of pre-cooled PBS. • j) The cells were resuspended in 200 μL of pre-cooled Perm Buffer III per well and permeabilized on ice for 60 minutes. • k) The plate was centrifuged at 600×g for 8 minutes, then the supernatant was discarded, and the cells were washed twice with pre-cooled PBS. • l) Intracellular staining with anti-pSTAT5 antibody was carried out, followed by incubation at room temperature for 60 minutes. • m) The cells were centrifuged at 600×g for 8 minutes, washed twice with PBS, resuspended in 200 μL of PBS, and detected using the CytoFlex S flow cytometer. • n) Data analysis was conducted using FlowJo and GraphPad Prism 8 software.
# Data were analyzed using FlowJo software. […]
# [3] = male, CD-1, plasma, PO 10 mg/kg
Compound,Apparent clearance Cl ([1]; IV 3 mg/kg) [mL/min/kg],Apparent volume of distribution Vd ([1]; IV 3 mg/kg) [L/kg],Area under the curve AUC0-last ([1]; IV 3 mg/kg) [µM·h],Half-life T1/2 ([1]; IV 3 mg/kg) [min],C0 ([1]; IV 3 mg/kg) [µM],Area under the curve AUC0-last ([1]; PO 10 mg/kg) [µM·h],Bioavailability F % ([1]; PO 10 mg/kg) [%],Time to peak concentration Tmax ([1]; PO 10 mg/kg) [min],Cmax ([1]; PO 10 mg/kg) [µM],IC50 [2] [µM],"Vd ([1]; male, CD-1, plasma, IV 3 mg/kg) [L/kg]","AUC(0-t) ([1]; male, CD-1, plasma, IV 3 mg/kg) [µM·h]","half-life ([1]; male, CD-1, plasma, IV 3 mg/kg) [min]","C0 ([1]; male, CD-1, plasma, IV 3 mg/kg) [µM]","AUC(0-t) [1, 3] [µM·h]","bioavailability [1, 3] [%]","Cmax [1, 3] [µM]","Tmax [1, 3] [min]"
CNC(=O)c1cnc(NC(=O)C2CC2)cc1Nc1cccc(-c2ccc(S(=O)(=O)C(C)C)cn2)c1OC.Cl [Hydrochloride of WX-020],7.0,1.1,14.13,138,8.04,56.784,121,30,15.5,,,,,,,,,
"CNC(=O)c1nnc(NC(=O)C2CC2)cc1Nc1cccc(-c2ncc(S(=N)(=O)C(C)C)cn2)c1OC (single isomer, unassigned) [WX-011A]",14.1,0.8,6.908,252,9.92,26.715,51,18,16.8,10.8,,,,,,,,
CNC(=O)c1cnc(NC(=O)C2CC2)cc1Nc1cccc(-c2ncc(S(=O)(=O)C(C)C)cn2)c1OC [WX-019],4.7,,,,,,,,,33.9,0.4,21,66,16.3,61.2,87,17.3,48
CNC(=O)c1nnc(NC(=O)C2CC2)cc1Nc1cccc(-c2ccc(P(=O)(C3CC3)C3CC3)cn2)c1OC [WX-021],8.5,,,,,,,,,,0.9,11.9,174,9.89,20.7,52,11.3,18
CNC(=O)c1cnc(NC(=O)C2CC2)cc1Nc1cccc(-c2ccc(S(=O)(=O)C(C)C)cn2)c1OC [WX-020],,,,,,,,,,> 100,,,,,,,,
